Source: patent US6028197A, “Dibenzo[a,g]quinolizinium derivatives and the salts thereof” (Hanwha Corporation, priority 1998, dated 2000)
Like-named read-outs stand apart in the source and are kept apart here.

What was measured:
sterol 14-reductase = target: T1, sterol 14-reductase (Rattus norvegicus, UniProt A0ACM8Q6X4); test: Inhibition of sterol 14-reductase in rat liver microsomes; type: biochemical
T1 construct: microsome which was used as an enzyme source of sterol 14-reductase; from tissue; host or cells: liver microsomes of male Sprague-Dawley rats fed lovastatin and cholestyramine
T1 sequence (A0ACM8Q6X4 1-418): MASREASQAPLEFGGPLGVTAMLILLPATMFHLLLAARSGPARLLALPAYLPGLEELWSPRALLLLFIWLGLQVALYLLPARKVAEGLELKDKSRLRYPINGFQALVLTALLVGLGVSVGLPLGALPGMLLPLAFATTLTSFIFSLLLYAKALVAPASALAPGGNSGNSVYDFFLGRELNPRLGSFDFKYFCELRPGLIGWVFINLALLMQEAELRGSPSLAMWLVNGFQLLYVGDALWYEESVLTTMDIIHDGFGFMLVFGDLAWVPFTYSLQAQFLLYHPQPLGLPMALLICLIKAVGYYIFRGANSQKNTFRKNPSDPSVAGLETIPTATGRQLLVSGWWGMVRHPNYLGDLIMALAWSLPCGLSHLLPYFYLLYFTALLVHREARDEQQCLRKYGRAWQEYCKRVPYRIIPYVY
Protocol: 20 Male Sprague-Dawley rats weighing from 150 to 250 g have been fed for 7 days with a diet containing 0.1% (w/w) Lovastatin and 5% (w/w) Cholestyramine. The animals were fasted for 12 hours before excising liver tissues and then sacrificed by decapitation at midnight. An aqueous solution containing 0.25M of sucrose was injected into the hepatic portal vein to remove all the blood within the liver, and then, the liver was excised. The liver was homogenated with two volumes of buffer solution A (0.1M potassium phosphate, 1 mM reduced glutathione, 0.5 mM EDTA, 20% (v/v) glycerol, pH 7.4) by repeating pestles over 10 times and then, centrifuged with 900×g for 5 minutes to give a supernatant. The supernatant was centrifuged with 12,000×g for 20 minutes. The supernatant obtained was ultracentrifuged with 105,000×g for 90 minutes to give a microsome which was used as an enzyme source of sterol 14-reductase. Assay for sterol 14-reductase was carried out as follows:
60 mmol of 4,4-dimethyl-5α-cholesta-7,14-dien-3β-ol and 5,6-dihydrodibenzo-[a,g]quinolizinium salts (compound no. 2) dissolved in DMSO were added to an assay mixture (total volume 1.0 ml) containing 2 mg of the microsomal protein, 2 mM of NADPH and 25 mg of glucose plus 20 units of glucose oxidase with preincubations under nitrogen at 37° C. for 4 min. unless otherwise specified to establish anaerobic condition. Buffer A (0.1M potassium phosphate buffer, pH 7.4, including 1 mM reduced glutathione, 0.5 mM EDTA, and 20% (v/v) glycerol) used for incubation had been equilibrated with nitrogen, and nitrogen was exchanged for air in all sealed reaction flasks prior to the start of incubations. Incubation of the complete mixture was carried out anaerobically in sealed flasks for 10 min at 37° C. unless otherwise indicated. Incubations were terminated by the addition of 1 ml of ethanolic KOH followed by heating under reflux for 10 min. Sterols were extracted four times with 4 ml of petroleum ether, and the solvent was evaporated to dryness under a nitrogen stream. The resulting residue was dissolved in 200-500 μl of n-hexane for quantification by GLC at high sensitive attenuation. The activity of sterol 14-reductase was determined with the amount of the substrate wherein the double bonds of 14-carbon were reduced (for the amount reduced by 1 mg of the microsome protein for 1 minute).

Syrian Golden Hamster = test: In vivo effect on plasma lipids in Syrian Golden Hamster; details: for HDL cholesterol, change versus normal diet control / LDL cholesterol, change versus normal diet control / Total cholesterol, change versus normal diet control / Triglyceride, change versus normal diet control / HDL cholesterol / LDL cholesterol / Total cholesterol / Triglyceride: 14 days; for total cholesterol, LDL-cholesterol, and triglyceride levels: compared with lovastatin; for HDL cholesterol / LDL cholesterol / Total cholesterol / Triglyceride: normal diet, plasma
Protocol: In order to investigate the effect of the compound of formula (I) of the invention, the compound was orally administered into male Syrian Golden Hamsters having weights of 90~110 g for two weeks and blood was then taken from each animal. Plasma lipids, i.e., total cholesterol, LDL-cholesterol,HDL-cholesterol and triglycerides were analyzed using an automatic analyzer (Automatic analyzer model Hitachi 7150).
Male Syrian Golden Hamsters weighing 90~110 g distributed from Samyuk Animal Laboratory, Seoul, Korea were bred under the following conditions: they were maintained under reverse light cycle (light cycle: from 6 P.M to 6 A.M; dark cycle: from 6 A.M. to 6 P.M.). The food and water were supplied at 10 A.M. The commercially available standard rodent chows were used. The hamsters were divided into 6 or 7 animals per group. The animals were fasted for 12 hours before administrating the drug. Then, 5,6-dihydrodibenzo[a,g]quinolizinium salts (compound no. 2) dissolved in a 0.25% methyl cellulose solution was administered orally for 14 days at the indicated time per a day. After fasting animals for 24 hours from the last administration, blood was extracted using a cardiac puncture and plasma was then isolated. Plasma lipids, i.e., total cholesterol, LDL-cholesterol, HDL-cholesterol and triglyceride values were analyzed using Automatic Analyzer (Hitachi 7150).

HepG2 cells = test: Cholesterol biosynthesis in cultured human liver cell line ([1,2-14C]acetate incorporation); type: cell-based; details: compared with AY9944 (comparative drug)
Protocol: Cultured human liver HepG2 cell line was grown on RPMI (Rosewell park Memorial Institute) 1640 culture medium containing 10% PBS until 60% of monolayer are formed in a 60 mm culture dish. After replacing the medium with 3 ml of a fresh culture medium containing 10% (v/v) LPDS (Fetal calf lipoprotein-deficient serum), the cells were further grown for 48 hours until 90% of cultivation degree appear The culture medium was removed and the cell was then washed with PBS. 2 ml of culture medium containing compound no. 2 (final concentration 100 μM) and AY-9944 (final concentration 1 μM) were added thereto. Then, the medium was cultivated at 37° C. for 1 hour under the condition of 95% air/5% carbonic acid gas. AY-9944 which is an inhibitor for sterol 7-reductase was used as a control drug for assuring the present experimental procedure on the inhibition of cholesterol biosynthesis. Thereafter, 3 μCi of [1,2-^14 C]acetate (72 mCi/mmol) were added thereto. The cultivation was continued for 2 hours so that the isotope is introduced into the cell and used as a precursor for sterol to be synthesized. Then, the culture medium was completely removed and washed with PBS twice and the cells were collected by scratching. 10 μg of cholesterol, 10 μg of lanosterol and [^3 H]cholesterol (30,000 dpm) were added thereto, and saponification reaction was carried out at 70° C. for an hour by adding 7.5% of methanolic KOH solution. Unsaponified sterol was removed by extracting them three times with 3 ml of petroleum ether and dried with nitrogen purging. The dried samples were redissolved in 200 μl of chloroform. An aliquot of the samples was loaded onto Silicagel 60F thin layer plate and then separated using ethyl acetate/hexane 25/75 (v/v) as the developing solvent. The thin layer film was developed by exposure to Amersham Hyperfilm at -70° C. for 7 days. Cholesterol band were confirmed by comparing the band appeared in the film and that appeared in the iodine-stained thin layer. After scratching the cholesterol band, it was quantified by a liquid scintillation counter.

SD rats = test: Acute oral toxicity in SD rats; type: in vivo; details: for general symptoms and the body weight change: oral dose over 2,000 mg/kg, monitored for two weeks; for lethal case: rat, in vivo
Protocol: (§1) Meanwhile, the toxicity of the compounds of the present invention was investigated as follows: i.e., the compounds were suspended into propylene glycol and then orally administered into each of 5 male and female SD rats at the age of 5-weeks that were fasted for 12 hours. Under the usual breeding conditions, general symptoms, weight change and lethal case of the above rats were monitored for two weeks. At the dose over 2,000 mg/kg of the compound nos. 2, 3, 9 and 68, general symptoms and the body weight change of the animals were normal and the lethal case was not observed.

[1] = Acute oral toxicity in SD rats; type: in vivo; details: rat, in vivo, po, rats
Protocol: as §1

[2] = read-out: Enzyme Activity (relative in vitro activity for sterol 14-reductase, IC50 class)

CCc1c2[n+](cc3c(OCc4ccc(C(C)(C)C)cc4)c(OC)ccc13)CCc1cc(OC)c(OC)cc1-2 [Compound No. 2, 5,6-dihydro-2,3-dimethoxybenzo[a]-9-[4-(tert-butyl)benzyloxy]-13-ethyl-10-methoxybenzo[g]quinolizinium chloride]
IC50 (sterol 14-reductase; rat liver microsome, anaerobic, 10 min at 37° C., read-out: level of compound at which 50% of inhibition of the enzymatic activity was observed): 0.1 to 0.3 µM | IC50 (sterol 14-reductase; [2]): < 1 µM | HDL cholesterol, change versus normal diet control (Syrian Golden Hamster; 0.3 mg/kg/day oral): +11.4% | LDL cholesterol, change versus normal diet control (Syrian Golden Hamster; 0.3 mg/kg/day oral): -16.0% | Total cholesterol, change versus normal diet control (Syrian Golden Hamster; 0.3 mg/kg/day oral): -11.5% | Triglyceride, change versus normal diet control (Syrian Golden Hamster; 0.3 mg/kg/day oral): -14.6% | total cholesterol, LDL-cholesterol, and triglyceride levels (Syrian Golden Hamster): markedly decreased | HDL cholesterol (Syrian Golden Hamster; 0.3 mg/kg/day oral): 66.6 ± 7 mg/dL | LDL cholesterol (Syrian Golden Hamster; 0.3 mg/kg/day oral): 31.0 ± 3 mg/dL | Total cholesterol (Syrian Golden Hamster; 0.3 mg/kg/day oral): 115.8 ± 8 mg/dL | Triglyceride (Syrian Golden Hamster; 0.3 mg/kg/day oral): 67.8 ± 8 mg/dL | inhibition of cholesterol biosynthesis in human HepG2 cell line (HepG2 cells): markedly inhibited | general symptoms and the body weight change (SD rats): normal | lethal case (SD rats): not observed | LD50 at 336 h ([1]; female): > 2000 mg/kg | LD50 at 336 h ([1]; male): > 2000 mg/kg

CCc1c2[n+](cc3c(OCc4c(F)c(F)c(F)c(F)c4F)c(OC)ccc13)CCc1cc(OC)c(OC)cc1-2 [Compound No. 3, 5,6-dihydro-2,3-dimethoxybenzo[a]-13-ethyl-10-methoxy-9-(2,3,4,5,6-pentafluoro)benyloxybenzo[g]quinolizinium chloride]
IC50 (sterol 14-reductase; [2]): < 1 µM | HDL cholesterol, change versus normal diet control (Syrian Golden Hamster; 0.3 mg/kg/day oral): +5.4% | LDL cholesterol, change versus normal diet control (Syrian Golden Hamster; 0.3 mg/kg/day oral): -49.2% | Total cholesterol, change versus normal diet control (Syrian Golden Hamster; 0.3 mg/kg/day oral): -23.5% | Triglyceride, change versus normal diet control (Syrian Golden Hamster; 0.3 mg/kg/day oral): -38.0% | total cholesterol, LDL-cholesterol, and triglyceride levels (Syrian Golden Hamster): markedly decreased | HDL cholesterol (Syrian Golden Hamster; 0.3 mg/kg/day oral): 63.0 ± 3.0 mg/dL | LDL cholesterol (Syrian Golden Hamster; 0.3 mg/kg/day oral): 18.8 ± 2 mg/dL | Total cholesterol (Syrian Golden Hamster; 0.3 mg/kg/day oral): 89.0 ± 7 mg/dL | Triglyceride (Syrian Golden Hamster; 0.3 mg/kg/day oral): 49.2 ± 6 mg/dL | inhibition of cholesterol biosynthesis in human HepG2 cell line (HepG2 cells): markedly inhibited | general symptoms and the body weight change (SD rats): normal | lethal case (SD rats): not observed | LD50 at 336 h ([1]; female): > 2000 mg/kg | LD50 at 336 h ([1]; male): > 2000 mg/kg

CCOc1cc2c(cc1OCC)-c1c(CC)c3ccc(OCC)c(OCc4ccc(C(F)(F)F)cc4)c3c[n+]1CC2 [Compound No. 62, 5,6-dihydro-2,3-diethoxybenzo[a]-10-ethoxy-13-ethyl-9-(4-trifluoromethyl)benzyloxybenzo[g]quinolizinium chloride]
IC50 (sterol 14-reductase; [2]): 10 to 100 µM

CCOc1cc2c(cc1OCC)-c1c(CC)c3ccc(OCC)c(OCc4cccc(C(F)(F)F)c4)c3c[n+]1CC2 [Compound No. 63, 5,6-dihydro-2,3-diethoxybenzo[a]-10-ethoxy-13-ethyl-9-(3-trifluoromethyl)benzyloxyenzo[g]quinolizinium chloride]
IC50 (sterol 14-reductase; [2]): 10 to 100 µM

CCOc1cc2c(cc1OCC)-c1c(CC)c3ccc(OCC)c(OCc4c(F)c(F)c(C(F)(F)F)c(F)c4F)c3c[n+]1CC2 [Compound No. 64, 5,6-dihydro-2,3-diethoxybenzo[a]-10-ethoxy-13-ethyl-9-(2,3,5,6-tetrafluoro-4-trifluoromethyl)-benzyloxy benzo[g]quinolizinium chloride]
IC50 (sterol 14-reductase; [2]): 10 to 100 µM

CCOc1cc2c(cc1OCC)-c1c(CC)c3ccc(OCC)c(OCc4ccc(Cl)nc4)c3c[n+]1CC2 [Compound No. 65, 5,6-dihydro-2,3-diethoxybenzo[a]-9-(6-chloropyridine-3-yl)methoxy-10-ethoxy-13-ethylbenzo[g]-quinolizinium chloride]
IC50 (sterol 14-reductase; [2]): 10 to 100 µM

CCCOc1cc2c(cc1OCCC)-c1c(CC)c3ccc(OCCC)c(OCc4ccc(C(C)(C)C)cc4)c3c[n+]1CC2 [Compound No. 66, 5,6-dihydro-2,3-dipropoxybenzo[a]-9-[4-(tert-butyl)benzyloxy]-13-ethyl-10-propoxybenzo[g]quinolizinium chloride]
IC50 (sterol 14-reductase; [2]): 10 to 100 µM

CCCOc1cc2c(cc1OCCC)-c1c(CC)c3ccc(OCCC)c(OCc4c(F)c(F)c(F)c(F)c4F)c3c[n+]1CC2 [Compound No. 67, 5,6-dihydro-2,3-dipropoxybenzo[a]-13-ethyl-9-(2,3,4,5,6-pentafluoro)benzyloxy-10-propoxybenzo[g]quinolizinium chloride]
IC50 (sterol 14-reductase; [2]): 10 to 100 µM

CCc1c2[n+](cc3c(OCc4ccc(C(C)(C)C)cc4)c(OC)ccc13)CCc1cc(OC)c(OC)cc1-2 [Compound No. 69, 5,6-dihydro-2,3-dimethoxybenzo[a]-9-[4-(tert-butyl)-benzyloxy]-13-ethyl-10-methoxybenzo[g]quinolizinium bisulfate]
IC50 (sterol 14-reductase; [2]): 10 to 100 µM

CCc1c2[n+](cc3c(OCc4c(F)c(F)c(F)c(F)c4F)c(OC)ccc13)CCc1cc(OC)c(OC)cc1-2 [Compound No. 70, 5,6-dihydro-2,3-dimethoxybenzo[a]-13-ethyl-10-methoxy-9-(2,3,4,5,6-pentafluoro)benzyloxybenzo[g]quinolizinium acetate]
IC50 (sterol 14-reductase; [2]): 10 to 100 µM

CCc1c2[n+](cc3c(OCc4ccc(Cl)nc4)c(OC)ccc13)CCc1cc(OC)c(OC)cc1-2 [Compound No. 71, 5,6-dihydro-2,3-dimethoxybenzo[a]-9-(6-chloropyridine-3-yl)methoxy-13-ethyl-10-methoxybenzo-[g]quinolizinium nitrate]
IC50 (sterol 14-reductase; [2]): 10 to 100 µM

CCc1c2[n+](cc3c(OCc4ccc(C)c(C)c4)c(OC)ccc13)CCc1cc(OC)c(OC)cc1-2 [compound 27, 5,6-dihydro-2,3-dimethoxybenzo[a]-9-(3,4-dimethyl)benzyloxy-13-ethyl-10-methoxybenzo[g]quinolizinium chloride]
IC50 (sterol 14-reductase; [2]): > 100 µM

CC[C@H](C)C(=O)O[C@H]1C[C@@H](C)C=C2C=C[C@H](C)[C@H](CC[C@@H]3C[C@@H](O)CC(=O)O3)[C@H]21 [lovastatin, reference compound]
HDL cholesterol, change versus normal diet control (Syrian Golden Hamster; 6.0 mg/kg/day oral): +11.2% | LDL cholesterol, change versus normal diet control (Syrian Golden Hamster; 6.0 mg/kg/day oral): -21.4% | Total cholesterol, change versus normal diet control (Syrian Golden Hamster; 6.0 mg/kg/day oral): -17.6% | Triglyceride, change versus normal diet control (Syrian Golden Hamster; 6.0 mg/kg/day oral): -30.1% | HDL cholesterol (Syrian Golden Hamster; 6.0 mg/kg/day oral): 67.0 ± 3 mg/dL | LDL cholesterol (Syrian Golden Hamster; 6.0 mg/kg/day oral): 29.1 ± 2 mg/dL | Total cholesterol (Syrian Golden Hamster; 6.0 mg/kg/day oral): 107.8 ± 9 mg/dL | Triglyceride (Syrian Golden Hamster; 6.0 mg/kg/day oral): 55.5 ± 7 mg/dL
